ChEMBL document CHEMBL5696442, “Discovery of type II inhibitors of TGFβ-activated kinase 1 (TAK1) and mitogen-activated protein kinase kinase kinase kinase 2 (MAP4K2)” (J Med Chem, 2015)
The source made the active and inactive calls. The rule behind the calls is not given here.

Key:
[1] = molecular target: T1, Receptor-interacting serine/threonine-protein kinase 4 (Homo sapiens) (UniProt P57078); assay: Inhibition of ANKRD3 Lys1 labeling site in human A-375 cells at 5 uM by KiNativ Profiling analysis relative to control; assay type: cell-based
T1 sequence (whole entry): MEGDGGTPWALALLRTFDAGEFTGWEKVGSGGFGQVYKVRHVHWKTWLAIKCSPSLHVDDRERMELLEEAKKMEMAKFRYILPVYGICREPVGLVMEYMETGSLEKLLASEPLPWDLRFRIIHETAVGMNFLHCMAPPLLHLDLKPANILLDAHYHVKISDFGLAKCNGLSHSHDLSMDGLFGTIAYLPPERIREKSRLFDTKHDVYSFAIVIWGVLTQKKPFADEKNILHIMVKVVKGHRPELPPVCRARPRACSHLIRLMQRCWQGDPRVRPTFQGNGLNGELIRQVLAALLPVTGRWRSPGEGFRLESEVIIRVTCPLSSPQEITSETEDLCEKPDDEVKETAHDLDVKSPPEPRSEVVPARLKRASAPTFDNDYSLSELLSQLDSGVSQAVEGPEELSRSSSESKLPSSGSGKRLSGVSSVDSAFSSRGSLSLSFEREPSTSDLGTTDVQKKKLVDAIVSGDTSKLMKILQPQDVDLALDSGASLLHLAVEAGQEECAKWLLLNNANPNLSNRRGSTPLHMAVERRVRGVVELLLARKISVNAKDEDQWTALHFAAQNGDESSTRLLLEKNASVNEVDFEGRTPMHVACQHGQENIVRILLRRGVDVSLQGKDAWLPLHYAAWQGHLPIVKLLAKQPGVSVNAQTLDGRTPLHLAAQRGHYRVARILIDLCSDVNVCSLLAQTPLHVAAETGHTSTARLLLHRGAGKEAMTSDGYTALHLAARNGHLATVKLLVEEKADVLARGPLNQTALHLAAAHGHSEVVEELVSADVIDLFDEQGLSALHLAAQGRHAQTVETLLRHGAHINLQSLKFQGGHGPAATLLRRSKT

[2] = molecular target: Cyclin-dependent kinase 1 (Homo sapiens) (UniProt P06493); assay: Inhibition of CDC2 Lys2 labeling site harbouring VLHRDLKPQNLLIDDKGTIK in human A-375 cells at 0.5 uM by KiNativ Profiling analysis relative to control; assay type: cell-based
Chain of Cyclin-dependent kinase 1 (Homo sapiens) (P06493 whole entry, looked up): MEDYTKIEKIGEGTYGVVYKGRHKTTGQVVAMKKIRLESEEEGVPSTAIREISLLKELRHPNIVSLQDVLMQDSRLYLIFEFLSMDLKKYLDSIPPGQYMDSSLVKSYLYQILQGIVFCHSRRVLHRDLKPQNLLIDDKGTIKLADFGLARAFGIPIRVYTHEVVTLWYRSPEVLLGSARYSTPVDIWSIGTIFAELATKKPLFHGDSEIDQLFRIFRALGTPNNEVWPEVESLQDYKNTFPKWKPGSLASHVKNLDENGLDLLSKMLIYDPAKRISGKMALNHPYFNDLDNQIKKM

[3] = molecular target: T2, Serine/threonine-protein kinase STK11 (Homo sapiens) (UniProt Q15831); assay: Inhibition of LKB1 (unknown origin) at 1 uM by Ambit Kinomescan binding assay relative to control; values are per cent of control
T2 sequence (whole entry): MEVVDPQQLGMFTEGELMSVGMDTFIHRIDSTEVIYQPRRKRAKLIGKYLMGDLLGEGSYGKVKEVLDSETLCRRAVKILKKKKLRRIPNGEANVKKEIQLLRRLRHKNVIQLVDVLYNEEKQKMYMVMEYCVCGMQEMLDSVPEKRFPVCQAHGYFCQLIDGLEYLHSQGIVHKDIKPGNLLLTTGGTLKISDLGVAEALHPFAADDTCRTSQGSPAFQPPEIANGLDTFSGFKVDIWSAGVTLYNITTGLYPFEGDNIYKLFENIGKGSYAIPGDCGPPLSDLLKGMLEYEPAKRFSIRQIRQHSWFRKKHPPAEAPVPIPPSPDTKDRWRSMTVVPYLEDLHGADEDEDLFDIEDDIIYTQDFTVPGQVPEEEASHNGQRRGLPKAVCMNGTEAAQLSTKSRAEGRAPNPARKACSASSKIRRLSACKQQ

[4] = molecular target: MAP kinase-interacting serine/threonine-protein kinase 2 (Homo sapiens) (UniProt Q9HBH9); assay: Inhibition of MKNK2 (unknown origin) at 1 uM by Ambit Kinomescan binding assay relative to control; values are per cent of control
Chain of MAP kinase-interacting serine/threonine-protein kinase 2 (Homo sapiens) (Q9HBH9 whole entry, looked up): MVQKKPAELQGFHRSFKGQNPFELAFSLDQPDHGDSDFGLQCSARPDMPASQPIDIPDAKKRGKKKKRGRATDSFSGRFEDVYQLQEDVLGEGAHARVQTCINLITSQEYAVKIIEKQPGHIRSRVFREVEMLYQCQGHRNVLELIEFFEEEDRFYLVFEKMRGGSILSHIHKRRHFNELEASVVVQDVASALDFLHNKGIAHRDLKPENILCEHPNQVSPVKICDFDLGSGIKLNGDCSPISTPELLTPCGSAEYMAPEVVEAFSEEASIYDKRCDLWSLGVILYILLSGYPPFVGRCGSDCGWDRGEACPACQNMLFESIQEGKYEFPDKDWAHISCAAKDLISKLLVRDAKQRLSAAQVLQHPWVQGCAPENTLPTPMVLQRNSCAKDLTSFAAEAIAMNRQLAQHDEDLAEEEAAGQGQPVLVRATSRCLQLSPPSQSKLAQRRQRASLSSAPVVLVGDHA

[5] = molecular target: Protein kinase C delta type (Homo sapiens) (UniProt Q05655); assay: Inhibition of PRKCD (unknown origin) at 1 uM by Ambit Kinomescan binding assay relative to control; values are per cent of control
Chain of Protein kinase C delta type (Homo sapiens) (Q05655 whole entry, looked up): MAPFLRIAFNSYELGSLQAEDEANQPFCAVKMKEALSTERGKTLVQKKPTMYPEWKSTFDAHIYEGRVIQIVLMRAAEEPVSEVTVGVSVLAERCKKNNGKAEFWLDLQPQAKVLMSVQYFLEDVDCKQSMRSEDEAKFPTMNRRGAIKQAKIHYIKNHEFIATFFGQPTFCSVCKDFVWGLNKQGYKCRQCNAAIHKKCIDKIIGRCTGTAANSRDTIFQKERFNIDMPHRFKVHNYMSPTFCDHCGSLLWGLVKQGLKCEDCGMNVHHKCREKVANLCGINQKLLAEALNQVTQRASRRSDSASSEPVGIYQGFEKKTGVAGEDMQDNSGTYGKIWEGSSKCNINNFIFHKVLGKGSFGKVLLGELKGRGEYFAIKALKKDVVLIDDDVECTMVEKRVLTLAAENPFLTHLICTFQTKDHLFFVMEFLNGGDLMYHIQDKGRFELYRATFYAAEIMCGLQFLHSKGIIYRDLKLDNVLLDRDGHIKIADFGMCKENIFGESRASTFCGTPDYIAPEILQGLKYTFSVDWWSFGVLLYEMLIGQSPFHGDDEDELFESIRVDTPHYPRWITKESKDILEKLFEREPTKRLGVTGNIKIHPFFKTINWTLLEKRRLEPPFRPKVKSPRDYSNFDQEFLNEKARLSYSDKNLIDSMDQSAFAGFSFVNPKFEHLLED

[6] = molecular target: Serine/threonine-protein kinase MARK2 (Homo sapiens) (UniProt Q7KZI7); assay: Inhibition of MARK2 (unknown origin) at 10 uM by Ambit Kinomescan binding assay
Chain of Serine/threonine-protein kinase MARK2 (Homo sapiens) (Q7KZI7 whole entry): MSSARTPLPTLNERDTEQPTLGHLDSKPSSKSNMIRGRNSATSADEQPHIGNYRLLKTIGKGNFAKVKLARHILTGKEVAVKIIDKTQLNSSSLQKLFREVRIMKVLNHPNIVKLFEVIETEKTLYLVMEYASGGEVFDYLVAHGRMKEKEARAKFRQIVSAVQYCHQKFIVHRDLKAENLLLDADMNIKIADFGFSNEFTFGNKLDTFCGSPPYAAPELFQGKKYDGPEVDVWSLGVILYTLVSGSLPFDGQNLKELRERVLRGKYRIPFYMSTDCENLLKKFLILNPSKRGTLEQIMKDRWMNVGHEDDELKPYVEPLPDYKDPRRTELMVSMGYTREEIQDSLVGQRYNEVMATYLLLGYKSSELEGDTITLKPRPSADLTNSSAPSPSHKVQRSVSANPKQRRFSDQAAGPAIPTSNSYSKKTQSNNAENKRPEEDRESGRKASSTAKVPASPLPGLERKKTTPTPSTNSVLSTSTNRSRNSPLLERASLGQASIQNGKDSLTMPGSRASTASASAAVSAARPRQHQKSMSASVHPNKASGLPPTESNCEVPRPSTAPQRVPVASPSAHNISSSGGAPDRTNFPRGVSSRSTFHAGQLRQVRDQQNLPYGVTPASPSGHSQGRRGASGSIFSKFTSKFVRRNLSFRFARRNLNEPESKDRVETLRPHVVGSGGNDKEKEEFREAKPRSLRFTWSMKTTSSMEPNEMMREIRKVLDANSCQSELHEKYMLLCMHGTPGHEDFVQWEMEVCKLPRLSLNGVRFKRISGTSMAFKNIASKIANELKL

[7] = molecular target: T3, Dual specificity mitogen-activated protein kinase kinase 6 (Homo sapiens) (UniProt P52564); assay: Inhibition of MEK6 (unknown origin) at 10 uM by Ambit Kinomescan binding assay
T3 sequence (whole entry): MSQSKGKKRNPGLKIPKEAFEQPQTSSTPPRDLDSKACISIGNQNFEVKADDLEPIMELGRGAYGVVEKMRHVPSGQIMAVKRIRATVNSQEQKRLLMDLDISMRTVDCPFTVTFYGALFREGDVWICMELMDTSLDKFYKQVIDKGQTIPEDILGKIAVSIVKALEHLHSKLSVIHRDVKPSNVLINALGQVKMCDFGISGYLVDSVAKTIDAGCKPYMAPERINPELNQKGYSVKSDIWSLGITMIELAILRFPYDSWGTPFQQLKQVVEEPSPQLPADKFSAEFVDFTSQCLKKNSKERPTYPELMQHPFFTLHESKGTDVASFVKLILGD

[8] = molecular target: Serine/threonine-protein kinase/endoribonuclease IRE1 (Homo sapiens) (UniProt O75460); assay: Inhibition of IRE1 Lys2 labeling site in human A-375 cells at 0.05 uM by KiNativ Profiling analysis relative to control; assay type: cell-based
Chain of Serine/threonine-protein kinase/endoribonuclease IRE1 (Homo sapiens) (O75460 19-977 limits assumed): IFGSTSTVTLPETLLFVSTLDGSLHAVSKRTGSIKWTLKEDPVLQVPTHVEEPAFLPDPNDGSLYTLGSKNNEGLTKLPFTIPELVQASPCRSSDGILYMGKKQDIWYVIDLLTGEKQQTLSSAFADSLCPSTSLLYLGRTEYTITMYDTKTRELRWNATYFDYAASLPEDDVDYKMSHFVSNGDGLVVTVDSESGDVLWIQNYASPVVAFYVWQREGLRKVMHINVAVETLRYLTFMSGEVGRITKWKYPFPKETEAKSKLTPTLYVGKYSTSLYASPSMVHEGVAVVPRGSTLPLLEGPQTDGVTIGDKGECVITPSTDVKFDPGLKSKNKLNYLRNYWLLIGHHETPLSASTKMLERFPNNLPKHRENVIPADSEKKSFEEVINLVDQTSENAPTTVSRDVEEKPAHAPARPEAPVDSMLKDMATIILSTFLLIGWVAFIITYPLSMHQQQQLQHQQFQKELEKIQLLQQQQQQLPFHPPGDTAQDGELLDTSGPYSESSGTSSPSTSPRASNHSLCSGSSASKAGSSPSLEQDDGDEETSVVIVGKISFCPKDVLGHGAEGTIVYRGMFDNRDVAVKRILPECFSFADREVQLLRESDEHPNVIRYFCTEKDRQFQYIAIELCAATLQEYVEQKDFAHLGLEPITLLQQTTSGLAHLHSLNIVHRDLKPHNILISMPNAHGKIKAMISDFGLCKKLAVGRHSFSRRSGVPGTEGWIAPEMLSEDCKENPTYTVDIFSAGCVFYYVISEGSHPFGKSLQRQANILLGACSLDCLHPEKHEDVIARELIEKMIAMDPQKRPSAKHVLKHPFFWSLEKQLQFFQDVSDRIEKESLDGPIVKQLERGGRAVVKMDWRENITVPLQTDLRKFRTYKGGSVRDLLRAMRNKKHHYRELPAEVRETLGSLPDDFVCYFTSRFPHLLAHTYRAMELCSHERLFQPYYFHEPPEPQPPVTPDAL

[9] = molecular target: Tyrosine-protein kinase Fes/Fps (Homo sapiens, UniProt P07332); assay: Inhibition of FES K1 labeling site in human Huh-7 cells at 10 uM by KiNativ Profiling analysis relative to control; assay type: cell-based
[10] = molecular target: Tyrosine-protein kinase Fyn (Homo sapiens) (UniProt P06241); assay: Inhibition of FYN ACT labeling site in human Huh-7 cells at 1 uM by KiNativ Profiling analysis relative to control; assay type: cell-based
[11] = molecular target: Tyrosine-protein kinase HCK (Homo sapiens) (UniProt P08631); assay: Inhibition of HCK (unknown origin) at 10 uM by Ambit Kinomescan binding assay relative to control; values are per cent of control
Chain of Tyrosine-protein kinase HCK (Homo sapiens) (P08631 2-526 limits assumed): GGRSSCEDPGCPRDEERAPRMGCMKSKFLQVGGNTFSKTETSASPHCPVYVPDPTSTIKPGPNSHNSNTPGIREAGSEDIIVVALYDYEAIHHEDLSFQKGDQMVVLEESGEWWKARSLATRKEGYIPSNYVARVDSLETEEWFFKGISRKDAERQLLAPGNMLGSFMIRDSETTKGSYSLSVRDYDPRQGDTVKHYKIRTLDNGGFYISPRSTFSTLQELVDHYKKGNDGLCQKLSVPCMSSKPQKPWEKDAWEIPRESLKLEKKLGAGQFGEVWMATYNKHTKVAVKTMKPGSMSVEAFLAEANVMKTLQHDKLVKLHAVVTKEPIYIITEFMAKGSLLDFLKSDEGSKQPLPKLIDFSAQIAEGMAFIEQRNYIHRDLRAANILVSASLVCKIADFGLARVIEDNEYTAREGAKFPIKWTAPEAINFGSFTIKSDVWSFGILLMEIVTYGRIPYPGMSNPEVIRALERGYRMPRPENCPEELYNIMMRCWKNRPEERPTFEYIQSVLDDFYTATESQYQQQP

[12] = molecular target: Proto-oncogene tyrosine-protein kinase Src (Homo sapiens, UniProt P12931); assay: Inhibition of SRC ACT labeling site in human Huh-7 cell lysate at 1 uM by KiNativ Profiling analysis relative to control; assay type: subcellular
[13] = molecular target: Mitogen-activated protein kinase 9 (Homo sapiens, UniProt P45984); assay: Inhibition of JNK2 Lys2 labeling site in human Huh-7 cells at 1 uM by KiNativ Profiling analysis relative to control; assay type: cell-based
[14] = molecular target: Phosphatidylinositol 4,5-bisphosphate 3-kinase catalytic subunit beta isoform (Homo sapiens) (UniProt P42338); assay: Inhibition of PIK3CB ATP labeling site harbouring VFGEDSVGVIFKNGDDLRQDMLTLQMLR in human Huh-7 cells at 1 uM by KiNativ Profiling analysis relative to control; assay type: cell-based
Chain of Phosphatidylinositol 4,5-bisphosphate 3-kinase catalytic subunit beta isoform (Homo sapiens) (P42338 whole entry, looked up, canonical isoform): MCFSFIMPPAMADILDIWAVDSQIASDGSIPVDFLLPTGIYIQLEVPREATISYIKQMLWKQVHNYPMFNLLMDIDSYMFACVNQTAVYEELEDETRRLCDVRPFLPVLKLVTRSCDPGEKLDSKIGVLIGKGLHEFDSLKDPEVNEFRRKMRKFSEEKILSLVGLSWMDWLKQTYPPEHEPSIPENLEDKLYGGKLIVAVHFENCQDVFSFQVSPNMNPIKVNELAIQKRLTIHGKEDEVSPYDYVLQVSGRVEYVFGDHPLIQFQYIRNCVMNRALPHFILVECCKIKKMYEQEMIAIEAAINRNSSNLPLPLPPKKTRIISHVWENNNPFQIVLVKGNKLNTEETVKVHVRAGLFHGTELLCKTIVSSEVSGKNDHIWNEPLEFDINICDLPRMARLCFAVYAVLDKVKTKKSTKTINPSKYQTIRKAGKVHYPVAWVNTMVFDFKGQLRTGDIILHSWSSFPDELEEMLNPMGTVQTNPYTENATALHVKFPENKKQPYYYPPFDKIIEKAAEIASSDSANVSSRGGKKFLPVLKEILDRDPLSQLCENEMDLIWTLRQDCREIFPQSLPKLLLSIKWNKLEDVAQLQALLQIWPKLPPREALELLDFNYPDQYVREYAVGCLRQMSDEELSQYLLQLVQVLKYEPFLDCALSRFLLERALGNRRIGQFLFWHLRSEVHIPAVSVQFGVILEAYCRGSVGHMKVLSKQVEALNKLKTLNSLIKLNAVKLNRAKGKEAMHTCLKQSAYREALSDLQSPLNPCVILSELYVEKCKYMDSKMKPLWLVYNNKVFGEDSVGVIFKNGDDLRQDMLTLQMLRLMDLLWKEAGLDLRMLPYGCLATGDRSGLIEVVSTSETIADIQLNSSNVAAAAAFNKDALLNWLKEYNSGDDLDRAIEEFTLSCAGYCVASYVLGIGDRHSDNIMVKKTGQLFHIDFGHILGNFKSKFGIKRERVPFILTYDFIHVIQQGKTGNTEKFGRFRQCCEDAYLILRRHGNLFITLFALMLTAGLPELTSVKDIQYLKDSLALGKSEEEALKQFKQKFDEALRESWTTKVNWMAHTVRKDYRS

[15] = molecular target: Rho-associated protein kinase 1 (Homo sapiens) (UniProt Q13464); assay: Inhibition of ROCK1 Lys2 labeling site in human Huh-7 cells at 1 uM by KiNativ Profiling analysis relative to control; assay type: cell-based

Q: For CCN1CCN(Cc2ccc(NC(=O)c3ccc(C)c(/C=C/c4cnc5[nH]ccc5c4OC)c3)cc2C(F)(F)F)CC1, which inhibition [1] is on record?
A: 17%

Q: And the inhibition [2]?
A: 5.8%

Q: And the residual activity [3]?
A: 58%

Q: And the residual activity [4]?
A: 48%

Q: And the residual activity [5]?
A: 60%

Q: Which inhibition [6] does the source give for CCN1CCN(Cc2ccc(NC(=O)c3ccc(C)c(Oc4ccnc5[nH]ccc45)c3)cc2C(F)(F)F)CC1 here?
A: inactive

Q: And the inhibition [7]?
A: inactive

Q: What about the inhibition [8] of the same compound?
A: 15.9%

Q: And the inhibition [9]?
A: 72.6%

Q: What about the inhibition [10] of the same compound?
A: -0.3%

Q: What about the percent of control [11] of the same compound?
A: 0.4%

Q: CNc1cc(Oc2cc(C(=O)Nc3cc(N4CCN(C)CC4)cc(C(F)(F)F)c3)ccc2C)ncn1 was tested. Which inhibition [12] did it give?
A: 22%

Q: What about the inhibition [13] of the same compound?
A: 14.5%

Q: And the inhibition [14]?
A: 14%

Q: And the inhibition [15]?
A: -1%
